Experiment [1] has as its system human breast cancer cells. The experiment is described as follows: Chemotactic migration of breast cancer cells towards serum in a migration plate, migrated cells labeled with calcein-AM. Type of experiment: cell-based. The note with it: highly metastatic breast cells; for inhibition at 20 µM: 20 μM drug. On the procedure:
(§1) After 18 hours, migrated cells were labeled with calcein-AM and fluorescence quantitated from the bottom. Nonmigrated cells were labeled with propidium iodide and fluorescence quantitated from the top. Estimation of 100% cell death was made by lysing cells in a test chamber with 1% Triton X-100 (TX 100) Error bars represent the standard deviation of 4-16 replicate test chambers. Asterisks represent a significant difference from migration without drugs (P<0.05). RFU=relative fluorescence units.
(§2) The cell suspension was added to the first chamber of a migration plate containing 96 chambers per plate at a concentration of about 80,000 cells per chamber. The migration plate used in this assay was manufactured by Polyfiltronics. Similar plates are available from Becton-Dickinson (U.S. Pat No. 5,801,055). The second chamber contained either haptotactic stimulus in the form of 20 μg/ml fibronectin or chemotactic in the form of 5% fetal calf serum. Cells were allowed to migrate in a humidified incubator at 37° C. and 5% carbon dioxide […].
(§3) During the last half hour of the incubation, calcein-AM (Molecular Probes, Eugene, Oreg.) was added to the second chamber to a final concentration of 5 μM and propidium iodide was added to the first chamber to a final concentration of 30 μM. At the end of the incubation the underside of the filters were washed twice in phosphate buffered saline. Fluorescence from each individual well chamber was measured from the bottom using 485 nm excitation and 530 nm emission filters.
(§4) Fluorescence from each individual well chamber was measured from the top using 560 nm excitation and 645 nm emission wavelength filters using a Tecan SpectraFluor fluorescent plate reader (Research Triangle Park NC). […] The asterisks represent a significant difference from positive control (p<0.05).

For experiment [2], the system named is human breast cancer cells. Put plainly: Haptotactic migration of breast cancer cells towards fibronectin in a migration plate, migrated cells labeled with calcein-AM. It counts as cell-based. The note with it: for inhibition of migration, dose dependence: sublethal concentration. How it is done:
as §1, §2, §3, §4

Where [3] appears, read: Homo sapiens, serum stimulus, read-out: inhibition of chemotaxis.
Where [4] appears, read: haptotactic and chemotactic migration.

In the case of `NC(=O)c1nnn(Cc2cc(Cl)c(C(=O)c3ccc(Cl)cc3)c(Cl)c2)c1N` [CAI, carboxyamido-triazole], the inhibition at 10 µM in experiment [1] (Homo sapiens, 10 μM drug, serum stimulus, read-out: inhibition of chemotaxis) is 7%. Also, the inhibition at 20 µM in experiment [1] (setting [3]) is 42%. For the same molecule, the “chemotactic migration inhibition relative to concentrations causing cell death” value in experiment [1] (FIGS. 3A, 3B) was “inhibited at lower concentrations than those that cause cell death”. The inhibition of haptotaxis result in experiment [2] (20 μM drug, fibronectin stimulus, highly metastatic breast cells) is given as “abolished haptotaxis”. Besides, in experiment [2] (Homo sapiens, 10 μM drug, fibronectin stimulus, highly metastatic breast cells, read-out: inhibition of haptotaxis), the inhibition at 10 µM was 32%. Moreover, in experiment [2] (setting [4]), the “effectiveness at halting migration, comparison of the two drugs” value was “more effective than tamoxifen at halting migration” and the “inhibition of migration, dose dependence” value was “inhibited migration in a dose-dependent manner at sublethal concentration”. Besides, in experiment [2] (highly metastatic breast cells, FIGS. 3A, 3B), the “haptotactic migration inhibition relative to concentrations causing cell death” value is given as “inhibited at lower concentrations than those that cause cell death”.

`CC/C(=C(\c1ccccc1)c1ccc(OCCN(C)C)cc1)c1ccccc1` [tamoxifen]: in experiment [1] (10 μM drug, serum stimulus), the inhibition of chemotaxis entry is “non-significant inhibition”. In addition, the inhibition at 20 µM in experiment [1] (setting [3]) was 9%; in experiment [2] (Homo sapiens, 20 μM drug, fibronectin stimulus, highly metastatic breast cells, read-out: inhibition of haptotaxis), 51%. The inhibition of haptotaxis entry in experiment [2] (10 μM drug, fibronectin stimulus, highly metastatic breast cells) was “non-significant inhibition”. Besides, the “inhibition of migration, dose dependence” value in experiment [2] (setting [4]) is “inhibited migration in a dose-dependent manner at sublethal concentration”.

Source of the values: patent US6448030B1, “Method for predicting the efficacy of anti-cancer drugs” (University of Nevada-Las Vegas, priority 2000, dated 2002).
